From ChEMBL document CHEMBL1126029, “Definition and display of steric, hydrophobic, and hydrogen-bonding properties of ligand binding sites in proteins using Lee and Richards accessible surface: validation of a high-resolution graphical tool for drug design” (J Med Chem, 1992)

Target: T1, Thermolysin (Bacillus thermoproteolyticus, UniProt P00800)
T1 sequence (P00800 whole entry): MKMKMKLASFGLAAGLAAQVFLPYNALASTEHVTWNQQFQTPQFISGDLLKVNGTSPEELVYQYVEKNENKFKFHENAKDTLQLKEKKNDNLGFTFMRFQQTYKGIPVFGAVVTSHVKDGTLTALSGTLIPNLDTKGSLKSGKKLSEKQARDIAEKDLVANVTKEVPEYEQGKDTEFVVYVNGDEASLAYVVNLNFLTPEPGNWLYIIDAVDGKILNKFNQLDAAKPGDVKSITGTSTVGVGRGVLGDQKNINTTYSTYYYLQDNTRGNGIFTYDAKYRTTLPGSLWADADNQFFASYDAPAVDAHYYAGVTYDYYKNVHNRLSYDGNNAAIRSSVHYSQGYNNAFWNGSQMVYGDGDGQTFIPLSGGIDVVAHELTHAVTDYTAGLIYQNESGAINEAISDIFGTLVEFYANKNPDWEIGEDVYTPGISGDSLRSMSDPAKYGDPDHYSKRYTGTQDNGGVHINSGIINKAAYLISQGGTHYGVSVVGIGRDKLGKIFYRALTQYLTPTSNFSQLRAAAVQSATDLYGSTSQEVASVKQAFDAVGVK
Experiment: Inhibitory constant against thermolysin.

SMILES	Ki [nM]
CC(C)C[C@H](NP(=O)(O)O[C@@H]1O[C@@H](C)[C@H](O)[C@@H](O)[C@H]1O)C(=O)N[C@@H](Cc1c[nH]c2ccccc12)C(=O)O [PHOSPHORAMIDON]	28
CC(C)C[C@H](NP(=O)(O)O)C(N)=O	21300
CC(C)C[C@H](NC(CCCc1ccccc1)C(=O)O)C(=O)N[C@@H](Cc1c[nH]c2ccccc12)C(=O)O (some centres not stated)	50
O=C(O)CNC(=O)C(CS)Cc1ccccc1 (configuration not stated) [THIORPHAN]	1800

Results, then the compound that gave them:

Ki [nM]	SMILES
750	C[C@H](NC(=O)C(CS)Cc1ccccc1)C(=O)NCC(N)=O (some centres not stated)
9.1	CC(C)C[C@H](NC(=O)[C@H](CC(C)C)NC(=O)CN(C(=O)OCc1ccccc1)P(=O)(O)O)C(=O)O
2300	O=C(O)CC(=O)N[C@@H](CS)Cc1ccccc1
